We go through one compound from patent publication US20090047704A1, “Combination of a Histological or Cytological Fixing Agent and One or More Photoactivatable Compounds of the Quinone Family, In Particular Hypericin, Hypocrellin A and Hypocrellin B” (NOVACYT, priority 2005, published 2009).

Entries after “also recorded” stand apart in the source; their conditions may differ.

Common to all, as to assay type: cell-based
Assay [1] concerns tumorous cells. The assay is described as follows: Incorporation of hypericin by tumorous cells suspended in fixing agent solution. Conditions: tumorous cells in suspension in fixing agent solution containing micromolar measures of hypericin. An excerpt: Since the liquid phase of the cell suspension practically no longer contains hypericin, it is possible to carry out a direct analysis of the cells (morphological and/or fluorescence emission analysis) without rinsing the cell suspension. This property therefore allows the cell/tissue preparation and the analysis of the cells to be automated.

Assay [2] relates to normal epithelial cells from a cervical smear. The assay can be described thus: Microspectrofluorometer measurement of hypericin marking in a fixed mixed cell suspension, normal cells. The note with it: Sakomano fixing agent, 2 μm/ml, one hour, shielded from light. An excerpt: (§1) Cells from a line of epidermoid malphigian carcinoma of the cervix, of the type HeLa, are cultivated in a petri dish. They are then fixed in a cytological fixing agent of the Sakomano type which already includes normal epithelial cells from a cervical smear in order to verify the affinity of hypericin for the tumorous cells in a cell suspension containing several types of normal cells and tumorous cells. Hypericin is then placed in suspension for one hour in the cell suspension fixed at a concentration of 2 μm/ml and shielded from light. Tests are carried out using a microspectrofluorometer in order to compare the level of intensity of fluorescence and the quality of the fluorescence spectrum measured for the different cells of the suspension, incubated at the same concentration for one hour in the solution of Sakomano cytological fixing agent containing hypericin.

In assay [3] the test system is tumorous HeLa cells. The assay is described as follows: Microspectrofluorometer measurement of hypericin marking in a fixed mixed cell suspension, tumorous cells. The note with it: Sakomano fixing agent, 2 μm/ml, one hour, shielded from light.
Text: as §1

Assay [4] deals with Human glioblastoma cells. The assay can be described thus: Microspectrofluorometer comparison of hypericin fluorescence in living versus fixed glioblastoma cells. Conditions: 2 micromoles per ml hypericin in Sakomano cytological fixing agent, one hour. The protocol: Human glioblastoma cells are cultivated in a petri dish. Hypericin is placed in suspension in a solution of Sakomano cytological fixing agent, with a concentration of 2 micromoles per ml, four hours before the experiments. The fixing agent solution comprising hypericin is shielded from light. The cells of the glioblastoma are directly fixed by placing them in the solution of fixing agent prepared based on hypericin for one hour. Comparative tests are carried out using a microspectrofluorometer in order to compare the level of intensity of fluorescence and the quality of the fluorescence spectrum measured in cultures of identical living glioblastoma cells, incubated at the same concentration for one hour in the solution of Sakomano cytological fixing agent containing hypericin, and the fixed cells.

In the case of `Cc1cc(O)c2c(=O)c3c(O)cc(O)c4c5c(O)cc(O)c6c(=O)c7c(O)cc(C)c8c1c2c(c34)c(c78)c65` [hypericin, 1,3,4,6,8,13-hexahydroxy-10,11-dimethylphenanthro(1,10,9,8,opqra)perylene-7,14-dione], the “incorporation of hypericin by the cells” value in assay [1] was “almost all of the hypericin is incorporated by the cells”. In assay [2], the “affinity of hypericin for normal cells” value is “very low level of affinity; also recorded: low level of affinity” and the “localisation of hypericin in normal cells” value is given as “peripheral localisation in the region of the cell membrane”. In assay [3], the “affinity of hypericin for tumorous cells” value is recorded as “great affinity” and the “localisation of hypericin in tumorous cells” value was “preferential perinuclear localisation; also recorded: very specific preferential perinuclear localisation”. Moreover, in assay [4], the “fluorescence spectrums, living cells versus fixed cells” value is “can be completely superimposed” and the “levels of intensity of the fluorescence, living cells versus fixed cells” value was “identical”.
